Experimental data: publication PMC4857601 (Nature chemistry, 2016)
Where a chain is given by its changes, count along the chain named.

What was measured:
[1] = molecular target: T1, DFsc (2A3H-DFsc), [DFsc-Zn(II)2] (synthetic construct, UniProt Z9QLD2D1S0, H107N); assay: UV/vis; type: binding; conditions: Zn(II)-bound form; bound as semiquinone derived from 4-t-butylcatechol
T1 sequence (Z9QLD2D1S0 1-115 H107N): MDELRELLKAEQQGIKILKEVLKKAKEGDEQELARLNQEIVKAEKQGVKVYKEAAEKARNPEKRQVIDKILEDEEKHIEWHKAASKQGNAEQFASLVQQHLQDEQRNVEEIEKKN

[2] = molecular target: T2, DFsc (2A3H-DFsc), [DFsc-Zn(II)2] (synthetic construct, UniProt Z9QLD2D1S0, H107A); assay: UV/vis; type: binding; conditions: Zn(II)-bound form; bound as semiquinone derived from 4-t-butylcatechol
T2 sequence (Z9QLD2D1S0 1-115 H107A): T1 sequence (Z9QLD2D1S0 1-115 H107N) with N107A

## CC(C)(C)c1ccc(O)c(O)c1
[1]
  UV/vis: The variants also form a 4-t-butylcatechol-derived SQ• complex
[2]
  UV/vis: The variants also form a 4-t-butylcatechol-derived SQ• complex
